Test results published in ChEMBL document CHEMBL4346657, “Anticancer activity, dual prooxidant/antioxidant effect and apoptosis induction profile of new bichalcophene-5-carboxamidines” (Eur J Med Chem, 2019).
Calls of active or inactive are those of the source. The rule behind the calls is not given here.

How the values were obtained:
UACC-62 = experiment: Antiproliferative activity against human UACC62 cells assessed as growth inhibition after 48 hrs by sulforhodamine B assay; type: functional; conditions: UACC-62, 48 h
NCI-H322M = experiment: Antiproliferative activity against human NCI-H322M cells assessed as growth inhibition after 48 hrs by sulforhodamine B assay; type: functional
NCI/ADR-RES = experiment: Antiproliferative activity against human NCI-ADR-RES cells assessed as growth inhibition after 48 hrs by sulforhodamine B assay; type: functional
Erythrocyte [1] = experiment: Haemolytic activity in human erythrocytes assessed as induction of hemolysis at 0.625 mM after 30 mins relative to H202; type: cell-based; conditions: erythrocyte, 0.5 h, 625 µM
WI-38 = experiment: Cytotoxicity activity against human WI38 cells assessed as reduction in cell viability measured after 48 hrs by MTT assay; type: cell-based; conditions: WI-38, 48 h
A498 = experiment: Antiproliferative activity against human A498 cells assessed as growth inhibition after 48 hrs by sulforhodamine B assay; type: functional; conditions: A498, 48 h
SW-620 = experiment: Antiproliferative activity against human SW620 cells assessed as growth inhibition after 48 hrs by sulforhodamine B assay; type: functional; conditions: SW-620, 48 h
NCI-H522 = experiment: Antiproliferative activity against human NCI-H522 cells assessed as growth inhibition after 48 hrs by sulforhodamine B assay; type: functional; conditions: NCI-H522, 48 h
NCI-H460 = experiment: Antiproliferative activity against human NCI-H460 cells assessed as growth inhibition after 48 hrs by sulforhodamine B assay; type: functional; conditions: NCI-H460, 48 h
OVCAR-3 = experiment: Antiproliferative activity against human OVCAR3 cells assessed as growth inhibition after 48 hrs by sulforhodamine B assay; type: functional; conditions: OVCAR-3, 48 h
COLO 205 = experiment: Antiproliferative activity against human COLO205 cells assessed as growth inhibition after 48 hrs by sulforhodamine B assay; type: functional; conditions: COLO 205, 48 h
[2] = Antioxidant activity assessed as hydroxyl radical scavenging activity after 1 hr by salicylic acid-based Fenton reaction assay; type: functional
MDA-MB-231 = experiment: Antiproliferative activity against human MDA-MB-231/ATCC cells assessed as growth inhibition after 48 hrs by sulforhodamine B assay; type: functional; conditions: MDA-MB-231, 48 h
EKVX = experiment: Antiproliferative activity against human EKVX cells assessed as growth inhibition after 48 hrs by sulforhodamine B assay; type: functional
IGROV-1 = experiment: Antiproliferative activity against human IGROV1 cells assessed as growth inhibition after 48 hrs by sulforhodamine B assay; type: functional; conditions: IGROV-1, 48 h
KM12 = experiment: Antiproliferative activity against human KM12 cells assessed as growth inhibition after 48 hrs by sulforhodamine B assay; type: functional; conditions: KM12, 48 h
T47D = experiment: Antiproliferative activity against human T47D cells assessed as growth inhibition after 48 hrs by sulforhodamine B assay; type: functional
DU-145 = experiment: Antiproliferative activity against human DU145 cells assessed as growth inhibition after 48 hrs by sulforhodamine B assay; type: functional; conditions: DU-145, 48 h
SNB-19 = experiment: Antiproliferative activity against human SNB19 cells assessed as growth inhibition after 48 hrs by sulforhodamine B assay; type: functional; conditions: SNB-19, 48 h
[3] = Antioxidant activity assessed as ABTS radical scavenging activity by spectrophotometric method relative to ascorbic acid; type: functional
HOP-62 = experiment: Antiproliferative activity against human HOP62 cells assessed as growth inhibition after 48 hrs by sulforhodamine B assay; type: functional; conditions: HOP-62, 48 h
Malme-3M = experiment: Antiproliferative activity against human MALME-3M cells assessed as growth inhibition after 48 hrs by sulforhodamine B assay; type: functional
[4] = tested on: Panel NCI-60 (60 carcinoma cell lines); experiment: Antiproliferative activity against human NCI60 cells assessed as growth inhibition after 48 hrs by sulforhodamine B assay; type: functional
BT-549 = experiment: Antiproliferative activity against human BT549 cells assessed as growth inhibition after 48 hrs by sulforhodamine B assay; type: functional; conditions: BT-549, 48 h
K562 = experiment: Antiproliferative activity against human K562 cells assessed as growth inhibition after 48 hrs by sulforhodamine B assay; type: functional, cell-based; conditions: K562, 48 h; for IC50: read-out: IC50
[5] = Antioxidant activity assessed as DPPH radical scavenging activity incubated in dark for 30 mins by spectrophotometric method relative to ascorbic acid; type: functional
HCT-116 [6] = experiment: […] in CDK1 mRNA expression in human HCT116 cells at 100 nM after 6 hrs hrs by SYBR green dye-based qRT-PCR analysis relative to control; type: functional
HCT-116 [7] = experiment: Induction of apoptosis in human HCT116 cells assessed as increase in caspase 3 mRNA expression at 100 nM after 6 hrs hrs by SYBR green dye-based qRT-PCR analysis relative to control; type: functional
MDA-MB-435 = experiment: Antiproliferative activity against human MDA-MB-435 cells assessed as growth inhibition after 48 hrs by sulforhodamine B assay; type: functional; conditions: MDA-MB-435, 48 h
[8] = Haemolytic activity in human erythrocytes assessed as induction of hemolysis at 5 mM after 30 mins relative to H202; type: cell-based, Erythrocyte; conditions: read-out: Activity
[9] = Selectivity index, ratio of IC50 for human WI38 cells to GI50 for human NCI60 cells
UACC-257 = experiment: Antiproliferative activity against human UACC257 cells assessed as growth inhibition after 48 hrs by sulforhodamine B assay; type: functional; conditions: UACC-257, 48 h
SR = experiment: Antiproliferative activity against human SR cells assessed as growth inhibition after 48 hrs by sulforhodamine B assay; type: functional
LOX IMVI = experiment: Antiproliferative activity against human LOXIMVI cells assessed as growth inhibition after 48 hrs by sulforhodamine B assay; type: functional
Erythrocyte [10] = experiment: (§1) Haemolytic activity in human erythrocytes assessed as induction of hemolysis at 2.5 mM after 30 mins relative to H202; type: cell-based; conditions: erythrocyte, 0.5 h, 2500 µM
HCC 2998 = experiment: Antiproliferative activity against human HCC2998 cells assessed as growth inhibition after 48 hrs by sulforhodamine B assay; type: functional; conditions: HCC 2998, 48 h
HOP-92 = experiment: Antiproliferative activity against human HOP92 cells assessed as growth inhibition after 48 hrs by sulforhodamine B assay; type: functional; conditions: HOP-92, 48 h
[11] = as §1; type: cell-based, Erythrocyte; conditions: erythrocytes, read-out: Activity

Row | Structure (SMILES) | GI50 (UACC-62) [nM] | GI50 (NCI-H322M) [nM] | GI50 (NCI/ADR-RES) [nM] | Activity (Erythrocyte [1]) | IC50 (WI-38) [nM] | GI50 (A498) [nM] | GI50 (SW-620) [nM] | GI50 (NCI-H522) [nM] | GI50 (NCI-H460) [nM] | GI50 (OVCAR-3) [nM] | GI50 (COLO 205) [nM] | Activity [2] | GI50 (MDA-MB-231) [nM] | GI50 (EKVX) [nM] | GI50 (IGROV-1) [nM] | GI50 (KM12) [nM] | GI50 (T47D) [nM] | GI50 (DU-145) [nM] | GI50 (SNB-19) [nM] | fold change (FC) [3] | other results
1 | N=C(N)c1ccc(-c2ccc(-c3ccc4ccccc4c3)s2)s1 | 2100 | 1640 | 2020 | Non-Toxic | 81300 | 1700 | 1910 | 1960 | 1950 | 1890 | 1630 | Active | 1850 | 2460 | 2160 | 1920 | 1950 | 1830 | 1950 | 0.8 | GI50 (HOP-62): 2080 nM; GI50 (Malme-3M): 3100 nM; GI50 [4]: 2390 nM; LC50 [4]: 30200 nM; TGI [4]: 6020 nM; GI50 (BT-549): 17600 nM; IC50 (K562): 1530 nM; fold change (FC) [5]: 0.6; fold change (FC) (HCT-116 [6]): 0.93; fold change (FC) (HCT-116 [7]): 2.59; GI50 (MDA-MB-435): 1910 nM; hemolysis at 0.5 h, 5000 µM [8]: 13%; Selectivity Index [9]: 34; GI50 (UACC-257): 16100 nM; GI50 (SR): 1050 nM; GI50 (LOX IMVI): 1710 nM; Activity (Erythrocyte [10]): Non-Toxic; GI50 (HCC 2998): 2020 nM
2 | N=C(N)c1ccc(-c2ccc(-c3ccc(Cl)cc3)s2)s1 | 1800 | 1630 | 1850 | Non-Toxic | 69200 | 13000 | 1740 | 1830 | 1510 | 1740 | 1440 | Active | 1800 | 1640 | 1830 | 1690 | 1550 | 1620 | 1920 | 0.9 | GI50 (HOP-62): 1750 nM; GI50 (Malme-3M): 1810 nM; GI50 [4]: 1730 nM; LC50 [4]: 29500 nM; TGI [4]: 4070 nM; GI50 (BT-549): 2110 nM; IC50 (K562): 670 nM; fold change (FC) [5]: 0.8; fold change (FC) (HCT-116 [6]): 1.08; fold change (FC) (HCT-116 [7]): 3; GI50 (MDA-MB-435): 1640 nM; hemolysis at 0.5 h, 5000 µM [8]: 49%; Selectivity Index [9]: 40; GI50 (UACC-257): 2780 nM; GI50 (HOP-92): 1810 nM; GI50 (SR): 320 nM; GI50 (LOX IMVI): 1310 nM; hemolysis at 0.5 h, 2500 µM [11]: 14.3%; GI50 (HCC 2998): 1570 nM
3 | COc1cc(OC)cc(-c2ccc(-c3ccc(C(=N)N)o3)o2)c1 | 1980 | 2860 | 8260 | Non-Toxic | 81600 | 2890 | 1880 | 2300 | 2320 | 3260 | 1840 | Active | 2350 | 5090 | 2970 | 2450 | 2080 | 4280 | 3020 | 0.4 | GI50 (HOP-62): 5650 nM; GI50 (Malme-3M): 2040 nM; GI50 [4]: 3020 nM; LC50 [4]: 22900 nM; TGI [4]: 8120 nM; GI50 (BT-549): 6910 nM; GI50 (K562): 1980 nM; IC50 (K562): 1890 nM; fold change (FC) [5]: 0.3; fold change (FC) (HCT-116 [6]): 1.24; fold change (FC) (HCT-116 [7]): 4.1; GI50 (MDA-MB-435): 1520 nM; hemolysis at 0.5 h, 5000 µM [8]: 7.5%; Selectivity Index [9]: 27; GI50 (UACC-257): 2410 nM; GI50 (SR): 1880 nM; GI50 (LOX IMVI): 1790 nM; Activity (Erythrocyte [10]): Non-Toxic; GI50 (HCC 2998): 2050 nM
